What was measured:
[1] = tested on: P70S6K (Thr389) phosphorylation (mTORC1) in MDA-MB-468 cells; assay: Cell based AlphaLISA assay, mTOR kinase cellular assay: inhibition of p-P70S6K (T389) in MDA-MB-468 cells; conditions: Homo sapiens, read-out: pIC50 for Inhibition of mTORC1 and mTORC2 Substarte Phosphorylation p-P70S6K-(T389) (converted)
In short: (§1)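 MDA-MB-468 cells treated with compound at 0.017-1,000 nM for two to four hours at 37° C, then lysed. Phospho-AKT1/2/3 S473, 4EBP1 T37/46 and P70S6K T389 quantified by AlphaLISA SureFire Ultra in duplicate; IC50 from normalized regression with control-based normalization.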

[2] = tested on: 4EBP1 (Thr37/46) phosphorylation (mTORC1) in MDA-MB-468 cells; assay: Cell based AlphaLISA assay, mTOR kinase cellular assay: inhibition of p-4E-BP1 (T37/46) in MDA-MB-468 cells; conditions: Homo sapiens, read-out: pIC50 for Inhibition of mTORC1 and mTORC2 Substarte Phosphorylation p-4E-BP1-(T37/46) (converted)
In short: as §1

[3] = tested on: AKT1/2/3 (Ser473) phosphorylation (mTORC2) in MDA-MB-468 cells; assay: Cell based AlphaLISA assay, mTOR kinase cellular assay: inhibition of p-Akt (S473) in MDA-MB-468 cells; conditions: Homo sapiens, read-out: pIC50 for Inhibition of mTORC1 and mTORC2 Substarte Phosphorylation p-AKT1/2/3-(S473) (converted)
In short: as §1

| Structure (SMILES) | IC50 [1] [nM] | IC50 [2] [nM] | IC50 [3] [nM] |
| --- | --- | --- | --- |
| CO[C@H]1C[C@@H]2CC[C@@H](C)[C@@](O)(O2)C(=O)C(=O)N2CCCC[C@H]2C(=O)O[C@H]([C@H](C)C[C@@H]2CC[C@@H](OC(=O)N3CCc4nc(N5CCN(c6ncc(C(=O)NCCOCCOCCOCCOCCC(=O)N7CCc8cc(Cn9nc(-c%10cnc%11[nH]ccc%11c%10)c%10c(N)ncnc%109)ccc8C7)cn6)CC5)ncc4C3)[C@H](OC)C2)CC(=O)[C@H](C)/C=C(\C)[C@@H](O)[C@@H](OC)C(=O)[C@H](C)C[C@H](C)/C=C/C=C/C=C/1C [Example 36] | ≤ 1 | ≤ 3.16 | > 1000 |
| CO[C@H]1C[C@@H]2CC[C@@H](C)[C@@](O)(O2)C(=O)C(=O)N2CCCC[C@H]2C(=O)O[C@H]([C@H](C)C[C@@H]2CC[C@@H](OC(=O)NCCOCCC(=O)NCc3cnc(N4CCN(C(=O)CCOCCN5CCN(c6ncc(C(=O)N7CCc8cc(Cn9nc(-c%10ccc%11oc(N)nc%11c%10)c%10c(N)ncnc%109)ccc8C7)cn6)CC5)CC4)nc3)[C@H](OC)C2)C[C@@H](O)[C@H](C)/C=C(\C)[C@@H](O)[C@@H](OC)C(=O)[C@H](C)C[C@H](C)/C=C/C=C/C=C/1C [Example 69] | ≤ 1 | ≤ 3.16 | 3.16 to 31.6 |
| CO[C@H]1C[C@@H]2CC[C@@H](C)[C@@](O)(O2)C(=O)C(=O)N2CCCC[C@H]2C(=O)O[C@H]([C@H](C)C[C@@H]2CC[C@@H](OC(=O)N(C)Cc3cnc(N4CCN(c5ncc(C(=O)NCCOCCOCCOCCOCCC(=O)N6CCc7cc(Cn8nc(-c9cnc%10[nH]ccc%10c9)c9c(N)ncnc98)ccc7C6)cn5)CC4)nc3)[C@H](OC)C2)CC(=O)[C@H](C)/C=C(\C)[C@@H](O)[C@@H](OC)C(=O)[C@H](C)C[C@H](C)/C=C/C=C/C=C/1C [Example 34] | ≤ 1 | > 1000 | > 1000 |
| CO[C@H]1C[C@@H]2CC[C@@H](C)[C@@](O)(O2)C(=O)C(=O)N2CCCC[C@H]2C(=O)O[C@H]([C@H](C)C[C@@H]2CC[C@@H](OC(=O)NCc3cnc(N4CCN(c5ncc(C(=O)NCCOCCOCCOCCOCCC(=O)N6CCc7cc(Cn8nc(-c9ccc%10oc(N)nc%10c9)c9c(N)ncnc98)ccc7C6)cn5)CC4)nc3)[C@H](OC)C2)C[C@@H](O)[C@H](C)/C=C(\C)[C@@H](O)[C@@H](OC)C(=O)[C@H](C)C[C@H](C)/C=C/C=C/C=C/1C [Example 28] | ≤ 1 | ≤ 3.16 | > 1000 |
| CO[C@H]1C[C@@H]2CC[C@@H](C)[C@@](O)(O2)C(=O)C(=O)N2CCCC[C@H]2C(=O)O[C@H]([C@H](C)C[C@@H]2CC[C@@H](OC(=O)NCCOCCOCCOCCOCCC(=O)NCc3cnc(N4CCN(c5ncc(C(=O)N6CCc7cc(Cn8nc(-c9ccc%10oc(N)nc%10c9)c9c(N)ncnc98)ccc7C6)cn5)CC4)nc3)[C@H](OC)C2)CC(=O)[C@H](C)/C=C(\C)[C@@H](O)[C@@H](OC)C(=O)[C@H](C)C[C@H](C)/C=C/C=C/C=C/1C [Example 46] | ≤ 1 | ≤ 3.16 | 3.16 to 31.6 |
| CO[C@H]1C[C@@H]2CC[C@@H](C)[C@@](O)(O2)C(=O)C(=O)N2CCCC[C@H]2C(=O)O[C@H]([C@H](C)C[C@@H]2CC[C@@H](OC(=O)NCc3cnc(N4CCN(c5ncc(C(=O)NCCOCCOCCOCCOCCC(=O)N6CCc7cc(Cn8nc(-c9ccc%10oc(N)nc%10c9)c9c(N)ncnc98)ccc7C6)cn5)CC4)nc3)[C@H](OC)C2)CC(=O)[C@H](C)/C=C(\C)[C@@H](O)[C@@H](OC)C(=O)[C@H](C)C[C@H](C)/C=C/C=C/C=C/1C [Example 27] | ≤ 1 | ≤ 3.16 | 3.16 to 31.6 |
| CO[C@H]1C[C@@H]2CC[C@@H](C)[C@@](O)(O2)C(=O)C(=O)N2CCCC[C@H]2C(=O)O[C@H]([C@H](C)C[C@@H]2CC[C@@H](OC(=O)N3CCc4nc(N5CCN(C(=O)CCOCCN6CCN(c7ncc(C(=O)N8CCc9cc(Cn%10nc(-c%11cnc%12[nH]ccc%12c%11)c%11c(N)ncnc%11%10)ccc9C8)cn7)CC6)CC5)ncc4C3)[C@H](OC)C2)CC(=O)[C@H](C)/C=C(\C)[C@@H](O)[C@@H](OC)C(=O)[C@H](C)C[C@H](C)/C=C/C=C/C=C/1C [Example 124] | ≤ 1 | ≤ 3.16 | 3.16 to 31.6 |
| CO[C@H]1C[C@@H]2CC[C@@H](C)[C@@](O)(O2)C(=O)C(=O)N2CCCC[C@H]2C(=O)O[C@H]([C@H](C)C[C@@H]2CC[C@@H](OC(=O)NCc3cnc(N4CCN(c5ncc(C(=O)NCCOCCOCCC(=O)N6CCc7cc(Cn8nc(-c9ccc%10oc(N)nc%10c9)c9c(N)ncnc98)ccc7C6)cn5)CC4)nc3)[C@H](OC)C2)CC(=O)[C@H](C)/C=C(\C)[C@@H](O)[C@@H](OC)C(=O)[C@H](C)C[C@H](C)/C=C/C=C/C=C/1C [Example 31] | ≤ 1 | ≤ 3.16 | 3.16 to 31.6 |
| CO[C@H]1C[C@@H]2CC[C@@H](C)[C@@](O)(O2)C(=O)C(=O)N2CCCC[C@H]2C(=O)O[C@H]([C@H](C)C[C@@H]2CC[C@@H](OC(=O)NCc3cnc(N4CCN(c5ncc(C(=O)NCCOCCOCCOCCOCCC(=O)N6CCc7cc(Cn8nc(-c9ccc%10oc(N)nc%10c9)c9c(N)ncnc98)ccc7C6)cn5)CC4CO)nc3)[C@H](OC)C2)CC(=O)[C@H](C)/C=C(\C)[C@@H](O)[C@@H](OC)C(=O)[C@H](C)C[C@H](C)/C=C/C=C/C=C/1C (stereo partly drawn) [Example 40] | ≤ 1 | ≤ 3.16 | 3.16 to 31.6 |
| CO[C@H]1C[C@@H]2CC[C@@H](C)[C@@](O)(O2)C(=O)C(=O)N2CCCC[C@H]2C(=O)O[C@H]([C@H](C)C[C@@H]2CC[C@@H](OC(=O)NCc3cnc(N4CCN(c5ncc(C(=O)NCCOCCOCCOCCOCCC(=O)N6CCc7cc(Cn8nc(-c9ccc%10oc(N)nc%10c9)c9c(N)ncnc98)ccc7C6)cn5)CC4)nc3)[C@H](OC)C2)C[C@@H](OC)[C@H](C)/C=C(\C)[C@@H](O)[C@@H](OC)C(=O)[C@H](C)C[C@H](C)/C=C/C=C/C=C/1C [Example 29] | ≤ 1 | ≤ 3.16 | > 1000 |
| CO[C@H]1C[C@@H]2CC[C@@H](C)[C@@](O)(O2)C(=O)C(=O)N2CCCC[C@H]2C(=O)O[C@H]([C@H](C)C[C@@H]2CC[C@@H](OC(=O)N3CCc4nc(N5CCN(c6ncc(C(=O)NCCOCCOCCOCCOCCC(=O)N7CCc8cc(Cn9nc(-c%10ccc%11oc(N)nc%11c%10)c%10c(N)ncnc%109)ccc8C7)cn6)[C@@H](C(=O)O)C5)ncc4C3)[C@H](OC)C2)C[C@@H](OC)[C@H](C)/C=C(\C)[C@@H](O)[C@@H](OC)C(=O)[C@H](C)C[C@H](C)/C=C/C=C/C=C/1C [Example 105] | ≤ 1 | 3.16 to 31.6 | > 1000 |
| CO[C@H]1C[C@@H]2CC[C@@H](C)[C@@](O)(O2)C(=O)C(=O)N2CCCC[C@H]2C(=O)O[C@H]([C@H](C)C[C@@H]2CC[C@@H](OC(=O)N3CCc4nc(N5CCN(CCOCCOCCOCCOCCOCCC(=O)N6CCc7cc(Cn8nc(-c9cnc%10[nH]ccc%10c9)c9c(N)ncnc98)ccc7C6)CC5)ncc4C3)[C@H](OC)C2)CC(=O)[C@H](C)/C=C(\C)[C@@H](O)[C@@H](OC)C(=O)[C@H](C)C[C@H](C)/C=C/C=C/C=C/1C [Example 38] | ≤ 1 | > 1000 | > 1000 |
| CO[C@H]1C[C@@H]2CC[C@@H](C)[C@@](O)(O2)C(=O)C(=O)N2CCCC[C@H]2C(=O)O[C@H]([C@H](C)C[C@@H]2CC[C@@H](OC(=O)N3CCc4nc(N5CCN(c6ncc(C(=O)NCCOCCOCCOCCOCCC(=O)N7CCc8cc(Cn9nc(-c%10ccc%11oc(N)nc%11c%10)c%10c(N)ncnc%109)ccc8C7)cn6)CC5)ncc4C3)[C@H](OC)C2)CC(=O)[C@H](C)/C=C(\C)[C@@H](O)[C@@H](OC)C(=O)[C@H](C)C[C@H](C)/C=C/C=C/C=C/1C [Example 39] | ≤ 1 | ≤ 3.16 | ≤ 3.16 |

Reference: patent US20230233569A1 (Revolution Medicines, Inc., priority 2020, published 2023)
